Experiments:
Type in all cases: in vivo, human
[1] = Example 16: liraglutide and One-Meal-A-Day; settings: One-Meal-A-Day; weeks 1-4: 0.75/1.5/1.5/2.25 mg; without exercise or caloric restriction
Excerpt: Patients are subject to a combination HMT/HNT treatment protocol as described in Table 20 below. […] [table]

[2] = Example 18: liraglutide and 18-hour fasting; settings: weeks 1-4: 0.75/1.5/1.5/2.25 mg, without exercise or caloric restriction
Excerpt: Patients are subject to a combination HMT/HNT treatment protocol as described in Table 22 below. […] [table]

[3] = Example 17: liraglutide and 15-hour fasting; settings: weeks 1-4: 0.75/1.5/2.25/2.25 mg, without exercise or caloric restriction
Excerpt: Patients are subject to a combination HMT/HNT treatment protocol as described in Table 21 below. […] [table]

[4] = Example 13: dulaglutide and One-Meal-A-Day; settings: One-Meal-A-Day; weeks 1-4: 0.2/0.375/0.375/0.6 mg; without exercise or caloric restriction
Excerpt: Patients are subject to a combination HMT/HNT treatment protocol as described in Table 17 below. […] [table]

[5] = Example 15: dulaglutide and 18-hour fasting; settings: weeks 1-4: 0.2/0.375/0.375/0.6 mg, without exercise or caloric restriction
Excerpt: Patients are subject to a combination HMT/HNT treatment protocol as described in Table 19 below. […] [table]

[6] = Example 14: dulaglutide and 15-hour fasting; settings: weeks 1-4: 0.2/0.375/0.375/0.6 mg, without exercise or caloric restriction
Excerpt: Patients are subject to a combination HMT/HNT treatment protocol as described in Table 18 below. […] [table]

[7] = Example 2: semaglutide (injection) and 15-hour fasting; settings: weeks 1-4: .25/.50/.50/1 mg, without exercise or caloric restriction
Excerpt: Patients are subject to a combination HMT/HNT treatment protocol as described in Table 6 below. […] [table]

[8] = Example 1: clinical study combining semaglutide (injection) and fasting (HMT/HNT), Patient 1
Excerpt: Patient 1 was subject to a combination HMT/HNT treatment protocol as described below.

[9] = Example 3: semaglutide (oral) and 18-hour fasting; settings: weeks 1-4: .25/.50/.50/1 mg, without exercise or caloric restriction
Excerpt: Patients are subject to a combination HMT/HNT treatment protocol as described in Table 7 below. […] [table]

[10] = Example 4: semaglutide (oral) and One-Meal-A-Day; settings: One-Meal-A-Day; weeks 1-4: 1/2/3.5/5 mg; without exercise or caloric restriction
Excerpt: Patients are subject to a combination HMT/HNT treatment protocol as described in Table 8 below. […] [table]

[11] = Example 6: semaglutide (oral) and 18-hour fasting; settings: weeks 1-4: 1/2/3.5/5 mg, without exercise or caloric restriction
Excerpt: Patients are subject to a combination HMT/HNT treatment protocol as described in Table 10 below. […] [table]

[12] = Example 5: semaglutide (oral) and 15-hour fasting; settings: weeks 1-4: 1/2/3.5/5 mg, without exercise or caloric restriction
Excerpt: Patients are subject to a combination HMT/HNT treatment protocol as described in Table 9 below. […] [table]

CCCCCCCCCCCCCCCC(=O)N[C@@H](CCC(=O)NCCCC[C@H](NC(=O)[C@H](C)NC(=O)[C@H](C)NC(=O)[C@H](CCC(N)=O)NC(=O)CNC(=O)[C@H](CCC(=O)O)NC(=O)[C@H](CC(C)C)NC(=O)[C@H](Cc1ccc(O)cc1)NC(=O)[C@H](CO)NC(=O)[C@H](CO)NC(=O)[C@@H](NC(=O)[C@H](CC(=O)O)NC(=O)[C@H](CO)NC(=O)[C@@H](NC(=O)[C@H](Cc1ccccc1)NC(=O)[C@@H](NC(=O)CNC(=O)[C@H](CCC(=O)O)NC(=O)[C@H](C)NC(=O)[C@@H](N)Cc1cnc[nH]1)[C@@H](C)O)[C@@H](C)O)C(C)C)C(=O)N[C@@H](CCC(=O)O)C(=O)N[C@@H](Cc1ccccc1)C(=O)N[C@H](C(=O)N[C@@H](C)C(=O)N[C@@H](Cc1c[nH]c2ccccc12)C(=O)N[C@@H](CC(C)C)C(=O)N[C@H](C(=O)N[C@@H](CCCNC(=N)N)C(=O)NCC(=O)N[C@@H](CCCNC(=N)N)C(=O)NCC(=O)O)C(C)C)[C@@H](C)CC)C(=O)O [Liraglutide]
Therapeutic effects (e.g. weight loss) [1]: Desirable therapeutics effects (e.g. weigh loss) are achieved | Therapeutic effects (e.g. weight loss) [2]: Desirable therapeutics effects (e.g. weigh loss) are achieved | Therapeutic effects (e.g. weight loss) [3]: Desirable therapeutics effects (e.g. weigh loss) are achieved

Dulaglutide
Therapeutic effects (e.g. weight loss) [4]: Desirable therapeutics effects (e.g. weigh loss) are achieved | Therapeutic effects (e.g. weight loss) [5]: Desirable therapeutics effects (e.g. weigh loss) are achieved | Therapeutic effects (e.g. weight loss) [6]: Desirable therapeutics effects (e.g. weigh loss) are achieved

Semaglutide
Therapeutic effects (e.g. weight loss) [7]: Desirable therapeutics effects (e.g. weigh loss) are achieved | Weight lost ([8]; in 30 days, combination HMT/HNT): 30 pounds | Bodyweight reduction ([8]; starting weight 282 lbs, 30 days, weeks 1-4: .25/.50/.50/1 mg, One-Meal-A-Day): −30 lbs

Semaglutide [Semaglutide (oral)]
Therapeutic effects (e.g. weight loss) [9]: Desirable therapeutics effects (e.g. weigh loss) are achieved | Therapeutic effects (e.g. weight loss) [10]: Desirable therapeutics effects (e.g. weigh loss) are achieved | Therapeutic effects (e.g. weight loss) [11]: Desirable therapeutics effects (e.g. weigh loss) are achieved | Therapeutic effects (e.g. weight loss) [12]: Desirable therapeutics effects (e.g. weigh loss) are achieved
